Results: ChEMBL document CHEMBL4118138, “Discovery of novel 2-[(4-hydroxy-6-oxo-2,3-dihydro-1H-pyridine-5-carbonyl)amino]acetic acid derivatives as HIF prolyl hydroxylase inhibitors for treatment of renal anemia” (Bioorg Med Chem Lett, 2018)
The source made the active and inactive calls. No cut-off for these calls is given here.

How the values were obtained:
[1] = Effective half life in Sprague-Dawley rat at 1 mg/kg, iv; type: ADME, organism-based; settings: in vivo, read-out: t1/2eff (converted)
Mus musculus [2] = assay: In vivo inhibition of PHD2 in Balb/c mouse assessed as EPO levels in serum at 40 mg/kg, po after 6 hrs by ELISA; type: functional
[3] = Drug metabolism in Sprague-Dawley rat hepatocytes assessed as oxidative metabolism at 1 uM after 1 hr by LC-MS/MS method; type: ADME, cell-based, Hepatocyte; settings: read-out: Drug metabolism
[4] = Protein binding in human serum at 1 ug/ml after 4 hrs by equilibrium dialysis method; type: ADME, cell-free; settings: read-out: PB (converted)
[5] = Protein binding in Sprague-Dawley rat serum at 1 ug/ml after 4 hrs by equilibrium dialysis method; type: ADME, cell-free; settings: read-out: PB (converted)
[6] = Volume of distribution at steady state in beagle dog at 1 mg/kg, iv by LC-MS/MS method; type: ADME, organism-based, Canis lupus familiaris; settings: in vivo, read-out: Vdss
[7] = Cmax in beagle dog at 5 mg/kg, po by LC-MS/MS method; type: ADME, organism-based, Canis lupus familiaris; design: dose 5 mg/kg, route oral; settings: in vivo
[8] = Half life in Sprague-Dawley rat at 1 mg/kg, iv by LC-MS/MS method; type: ADME, organism-based; settings: in vivo
[9] = Oral bioavailability in Sprague-Dawley rat at 10 mg/kg by LC-MS/MS method; type: ADME, organism-based; settings: in vivo
[10] = Total clearance in Sprague-Dawley rat at 1 mg/kg, iv by LC-MS/MS method; type: ADME, organism-based; settings: in vivo
[11] = Cmax in Sprague-Dawley rat at 10 mg/kg, po by LC-MS/MS method; type: ADME, organism-based; design: dose 10 mg/kg, route oral; settings: in vivo
[12] = Oral bioavailability in beagle dog at 5 mg/kg by LC-MS/MS method; type: ADME, organism-based, Canis lupus familiaris; settings: in vivo
[13] = Volume of distribution at steady state in Sprague-Dawley rat at 1 mg/kg, iv by LC-MS/MS method; type: ADME, organism-based; settings: in vivo, read-out: Vdss
[14] = Tmax in Sprague-Dawley rat at 10 mg/kg, po by LC-MS/MS method; type: ADME, organism-based; settings: in vivo
[15] = Half life in beagle dog at 5 mg/kg, po by LC-MS/MS method; type: ADME, organism-based, Canis lupus familiaris; settings: in vivo
[16] = Tmax in beagle dog at 5 mg/kg, po by LC-MS/MS method; type: ADME, organism-based, Canis lupus familiaris; settings: in vivo
Rattus norvegicus [17] = assay: In vivo inhibition of PHD2 in Sprague-Dawley rat assessed as EPO levels in serum at 40 mg/kg, po after 8 hrs by ELISA; type: functional
[18] = Half life in beagle dog at 1 mg/kg, iv by LC-MS/MS method; type: ADME, organism-based, Canis lupus familiaris; settings: in vivo
[19] = Half life in Sprague-Dawley rat at 10 mg/kg, po by LC-MS/MS method; type: ADME, organism-based; settings: in vivo
Egl nine homolog 1 = Egl nine homolog 1 (Rattus norvegicus, UniProt P59722); assay: Inhibition of rat PHD2 using FITC-HIF1-alpha as substrate after 10 mins in presence of 2-oxoglutarate by fluorescence polarization assay
Egl nine homolog 1, sequence (P59722 whole entry): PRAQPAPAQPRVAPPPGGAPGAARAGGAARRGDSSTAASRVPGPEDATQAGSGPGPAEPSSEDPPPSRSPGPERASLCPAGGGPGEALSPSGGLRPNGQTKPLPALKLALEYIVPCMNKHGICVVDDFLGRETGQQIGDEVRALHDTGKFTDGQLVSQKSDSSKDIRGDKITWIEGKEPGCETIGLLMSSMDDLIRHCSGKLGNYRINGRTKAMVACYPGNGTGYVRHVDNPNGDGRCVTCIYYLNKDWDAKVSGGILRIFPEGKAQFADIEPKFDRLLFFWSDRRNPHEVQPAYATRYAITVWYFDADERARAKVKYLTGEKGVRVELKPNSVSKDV

[20] = Total clearance in beagle dog at 1 mg/kg, iv by LC-MS/MS method; type: ADME, organism-based, Canis lupus familiaris; settings: in vivo
Mus musculus [21] = assay: In vivo inhibition of PHD2 in Balb/c mouse assessed as EPO levels in serum at 100 mg/kg, po after 6 hrs by ELISA; type: functional
Rattus norvegicus [22] = assay: In vivo inhibition of PHD2 in Sprague-Dawley rat assessed as increase in EPO levels in serum at 100 mg/kg, po after 6 hrs by ELISA; type: functional, organism-based
Homo sapiens = assay: Terminal half life in patient with hepatic impairment at 100 mg, po; type: ADME, organism-based; settings: in vivo
[23] = Drug metabolism in Sprague-Dawley rat hepatocytes assessed as oxidative metabolism at 1 uM after 4 hrs by LC-MS/MS method; type: ADME, cell-based, Hepatocyte; settings: read-out: Drug metabolism
[24] = Protein binding in beagle dog plasma at 0.3 ug/ml after 8 hrs by equilibrium dialysis method; type: ADME, cell-free, Canis lupus familiaris; settings: read-out: PPB (converted)
[25] = Drug metabolism in human hepatocytes assessed as oxidative metabolism at 1 uM after 4 hrs by LC-MS/MS method; type: ADME, cell-based, Hepatocyte; settings: read-out: Drug metabolism
[26] = Protein binding in Sprague-Dawley rat plasma at 0.3 ug/ml after 8 hrs by equilibrium dialysis method; type: ADME, cell-free; settings: read-out: PPB (converted)
[27] = Drug metabolism in beagle dog hepatocytes assessed as oxidative metabolism at 1 uM after 4 hrs by LC-MS/MS method; type: ADME, cell-based, Canis lupus familiaris, Hepatocyte; settings: read-out: Drug metabolism
[28] = Protein binding in human plasma at 0.3 ug/ml after 8 hrs by equilibrium dialysis method; type: ADME, cell-free; settings: read-out: PPB (converted)
[29] = Half life in patient administered as qd; type: ADME, organism-based; settings: human, in vivo

Cc1ccc(Oc2ccc(CN3CCC(O)=C(C(=O)NCC(=O)O)C3=O)cc2)cc1
half-life [1]: 0.52 h
serum EPO level (Mus musculus [2]): 4441 pg/mL

O=C(O)CNC(=O)C1=C(O)CCN(Cc2ccc(C(F)(F)F)cc2)C1=O
half-life [1]: 4.9 h

O=C(O)CNC(=O)C1=C(O)CC2(CCC2)N(Cc2ccc(-c3ccccc3)cc2)C1=O
metabolised at 1 h, 1 µM [3]: 13%
fraction unbound at 4 h, 1 ug/ml [4]: 0.005
fraction unbound at 4 h, 1 ug/ml [5]: < 0.006

O=C(O)CNC(=O)C1=C(O)CCN(Cc2ccc(Oc3ccc(Cl)cc3)nc2)C1=O
Vd [6]: 0.231 L/kg
Cmax [7]: 6980 ng/mL
half-life [8]: 3.1 h
bioavailability [9]: 82.8%
clearance [10]: 7.28 mL/min/kg
half-life [1]: 1.5 h
Cmax [11]: 10700 ng/mL
bioavailability [12]: 52.8%
Vd [13]: 0.904 L/kg
Tmax [14]: 0.25 h
half-life [15]: 3.5 h
Tmax [16]: 0.75 h
Activity (Rattus norvegicus [17]): 3003 pg/mL
half-life [18]: 4.7 h
half-life [19]: 2.3 h
IC50 (Egl nine homolog 1): 18 nM
clearance [20]: 3.28 mL/min/kg

O=C(O)CNC(=O)C1=C(O)CCN(Cc2ccc(OC(F)(F)F)cc2)C1=O
half-life [1]: 2.8 h

O=C([O-])CNC(=O)C1=C(O)CCN(Cc2ccc(OCCC3CC3)nc2)C1=O.[Na+]
half-life [1]: 0.42 h
serum EPO level (Mus musculus [2]): 7530 pg/mL

O=C(O)CNC(=O)C1=C(O)CC2(CCCCC2)N(Cc2ccc(-c3ccccc3)cc2)C1=O
Activity (Mus musculus [21]): 2323 pg/mL
metabolised at 1 h, 1 µM [3]: 31.3%
fraction unbound at 4 h, 1 ug/ml [4]: < 0.006
fraction unbound at 4 h, 1 ug/ml [5]: < 0.006
Activity (Rattus norvegicus [22]): inactive

O=C([O-])CNC(=O)C1=C(O)CCN(Cc2ccc(OC3CC3)cc2)C1=O.[Na+]
half-life [1]: 0.55 h

O=C(O)CNC(=O)C1=C(O)CCN(Cc2ccc(OCC3CC3)cc2)C1=O
half-life [1]: 1.4 h
serum EPO level (Mus musculus [2]): 6258 pg/mL

O=C(O)CNC(=O)C1=C(O)CCN(Cc2ccc(-c3ccccc3)cc2)C1=O
metabolised at 1 h, 1 µM [3]: 34.4%
fraction unbound at 4 h, 1 ug/ml [4]: 0.011
fraction unbound at 4 h, 1 ug/ml [5]: 0.007

O=C([O-])CNC(=O)C1=C(O)CCN(Cc2ccc(OCCC3CC3)cc2)C1=O.[Na+]
half-life [1]: 0.46 h
serum EPO level (Mus musculus [2]): 8163 pg/mL

Cc1nc(C(=O)NCC(=O)O)c(O)c2ccc(Oc3ccccc3)cc12 [ROXADUSTAT]
beta t1/2 (Homo sapiens): 13 h

O=C([O-])CNC(=O)C1=C(O)CCN(Cc2ccc(OCCC3CC3)cn2)C1=O.[Na+]
serum EPO level (Mus musculus [2]): 471 pg/mL

Cc1ccc(Oc2ccc(CN3CCC(O)=C(C(=O)NCC(=O)O)C3=O)cn2)cc1
half-life [1]: 0.72 h
serum EPO level (Mus musculus [2]): 3497 pg/mL

CC1CC(O)=C(C(=O)NCC(=O)O)C(=O)N1Cc1ccc(-c2ccccc2)cc1 (centres undefined)
metabolised at 1 h, 1 µM [3]: 3.8%
fraction unbound at 4 h, 1 ug/ml [4]: < 0.006
fraction unbound at 4 h, 1 ug/ml [5]: < 0.006

O=C([O-])CNC(=O)C1=C(O)CCN(Cc2ccc(Oc3ccc(Cl)cc3)nc2)C1=O.[Na+]
metabolised at 4 h, 1 µM [23]: 0.9%
fraction unbound at 8 h, 0.3 ug/ml [24]: 0.011
metabolised at 4 h, 1 µM [25]: 5.7%
fraction unbound at 8 h, 0.3 ug/ml [26]: 0.011
serum EPO level (Mus musculus [2]): 8371 pg/mL
metabolised at 4 h, 1 µM [27]: -0.3%
fraction unbound at 8 h, 0.3 ug/ml [28]: 0.009

CC1CN(Cc2ccc(-c3ccccc3)cc2)C(=O)C(C(=O)NCC(=O)O)=C1O (centres undefined)
metabolised at 1 h, 1 µM [3]: 6%
fraction unbound at 4 h, 1 ug/ml [4]: < 0.005
fraction unbound at 4 h, 1 ug/ml [5]: < 0.005

O=C(O)CNC(=O)C1C(=O)N(C2CCCCC2)C(=O)N(C2CCCCC2)C1=O [DAPRODUSTAT]
half-life [29]: 2.7 h

Cc1ccc(Oc2ccc(CN3CCC(O)=C(C(=O)NCC(=O)[O-])C3=O)nc2)cc1.[Na+]
serum EPO level (Mus musculus [2]): 1488 pg/mL

O=C(O)CNC(=O)c1ncc(-c2cccc(Cl)c2)cc1O [VADADUSTAT]
half-life [29]: 4.5 h
